# Experimental data from US20180318311A1, “TRICYCLIC 2-QUINOLINONES AS ANTIBACTERIALS” (priority 2017, published 2018).
# Structures can show the parent of a compound that is named as a salt. Where two headings read alike, the source gives them in different places.
# Legend:
# Format in all cases: cell-based
# [1] = system: S. aureus ATCC 49951 (NB01006); experiment: MIC by broth microdilution, S. aureus NB01006; settings: Staphylococcus aureus, ATCC49951, CAMHB, 35° C., 20 hours, read-out: Antibacterial activity (MIC) NB01006
# Method in brief: (§1)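 Per CLSI, strains grown overnight on Mueller-Hinton agar are tested in cation-adjusted Mueller-Hinton broth at about 5×10^5 CFU/mL against serially diluted compound, 1% DMSO final. Incubation runs 20 h at 35° C; MIC is judged visually with OD600 support.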
# [2] = system: P. aeruginosa NB52019, wild-type PAO1 strain; experiment: MIC by broth microdilution, P. aeruginosa NB52019; settings: Pseudomonas aeruginosa, CAMHB, 35° C., 20 hours, read-out: Antibacterial activity (MIC) NB52019
# Method in brief: as §1
# [3] = system: S. aureus NB01006-AVR005, gyrA (S84L), grlA (580F) and grlB (E471K); experiment: microbe, parasite or virus in culture; settings: Staphylococcus aureus, 20 h, read-out: Antibacterial activity (MIC) NB01006-AVR005
# Method in brief: as §1
# [4] = system: S. pneumoniae ATCC 25922 (NB07001); experiment: MIC by broth microdilution, S. pneumoniae NB07001; settings: Streptococcus pneumoniae, read-out: Antibacterial activity (MIC) NB07001
# Method in brief: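 CAMHB, ~5×10^5 CFU/mL, 2-fold serial dilutions (final DMSO 1%), 35° C, ambient air, 20 h. Read OD600 plus visual check; MIC = lowest conc. with no visible growth, μg/mL.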
# [5] = system: E. faecalis ATCC 29212 (NB04001); experiment: MIC by broth microdilution, E. faecalis NB04001; settings: Enterococcus faecalis, ATCC29212, CAMHB, 35° C., 20 hours, read-out: Antibacterial activity (MIC) NB04001
# Method in brief: as §1
# [6] = system: E. coli ATCC 25922 (NB27001); experiment: MIC by broth microdilution, E. coli NB27001; settings: Escherichia coli, ATCC25922, CAMHB, 35° C., 20 hours, read-out: Antibacterial activity (MIC) NB27001
# Method in brief: as §1
# [7] = system: S. aureus NB01080 fluoroquinolone-resistant clinical isolate; experiment: MIC by broth microdilution, S. aureus NB01080; settings: Staphylococcus aureus, CAMHB, 35° C., 20 hours, read-out: Antibacterial activity (MIC) NB01080
# Method in brief: as §1
Compound,MIC [1],MIC [2],MIC [3],"MIC ([4]; ATCC25922, 20 h)",MIC [5],MIC [6],MIC [7],"MIC ([4]; ATCC25922, S. pneumoniae, CAMHB supplemented with 5% lysed horse blood, 35° C., 20 hours)"
"C[C@H]1COc2c(N3CCN4CCC3C4)c(F)cc3cc(C(=O)O)c(=O)n1c23 (stereo partly drawn) [Example 1.60, (3S)-10-(1,4-diazabicyclo[3.2.1]octan-4-yl)-9-fluoro-3-methyl-5-oxo-2,3-dihydro-5H-[1,4]oxazino[2,3,4-ij]quinoline-6-carboxylic acid]",1 to 32 µg/mL,1 to 32 µg/mL,> 32 µg/mL,1 to 32 µg/mL,1 to 32 µg/mL,1 to 32 µg/mL,> 32 µg/mL,
"C[C@H]1COc2c(N3CCC(=C(Cl)CO)CC3)c(F)cc3cc(C(=O)O)c(=O)n1c23 [Example 1.8, (S)-10-(4-(1-chloro-2-hydroxyethylidene)piperidin-1-yl)-9-fluoro-3-methyl-5-oxo-2,3-dihydro-5H-[1,4]oxazino[2,3,4-ij]quinoline-6-carboxylic acid]",< 1 µg/mL,> 32 µg/mL,1 to 32 µg/mL,< 1 µg/mL,< 1 µg/mL,> 32 µg/mL,< 1 µg/mL,
"C[C@H]1COc2c(N3CCC4(CC3)CC4N)c(F)cc3cc(C(=O)O)c(=O)n1c23 (single isomer, unassigned) [Example 1.33]",1 to 32 µg/mL,> 32 µg/mL,> 32 µg/mL,1 to 32 µg/mL,1 to 32 µg/mL,1 to 32 µg/mL,1 to 32 µg/mL,
"CC1Cc2c(N3CC[C@@H](C4(N)CC4)C3)c(F)cc3cc(C(=O)O)c(=O)n1c23.Cl (single isomer, unassigned) [Example 9.1]",< 1 µg/mL,> 32 µg/mL,1 to 32 µg/mL,,< 1 µg/mL,1 to 32 µg/mL,< 1 µg/mL,< 1 µg/mL
"C[C@H]1COc2c(N3CC4CC4(N)C3)c(F)cc3ccc(=O)n1c23 (stereo partly drawn) [Example 6.2, (3S)-10-(1-amino-3-azabicyclo[3.1.0]hexan-3-yl)-9-fluoro-3-methyl-2,3-dihydro-5H-[1,4]oxazino[2,3,4-ij]quinolin-5-one hydrochloride salt]",1 to 32 µg/mL,> 32 µg/mL,1 to 32 µg/mL,1 to 32 µg/mL,1 to 32 µg/mL,1 to 32 µg/mL,< 1 µg/mL,
"C[C@H]1COc2c(N3CC4CC4(N)C3)c(F)cc3cc(C(=O)O)c(=O)n1c23 (stereo partly drawn) [Example 1.3, (3S)-10-(1-amino-3-azabicyclo[3.1.0]hexan-3-yl)-9-fluoro-3-methyl-5-oxo-2,3-dihydro-5H-[1,4]oxazino[2,3,4-ij]quinoline-6-carboxylic acid]",< 1 µg/mL,> 32 µg/mL,1 to 32 µg/mL,1 to 32 µg/mL,1 to 32 µg/mL,1 to 32 µg/mL,1 to 32 µg/mL,
"C[C@H]1COc2c(N3CC(N)C(CO)C3)c(F)cc3cc(C(=O)O)c(=O)n1c23 (single isomer, unassigned) [Example 1.77]",1 to 32 µg/mL,> 32 µg/mL,> 32 µg/mL,1 to 32 µg/mL,> 32 µg/mL,> 32 µg/mL,> 32 µg/mL,
"C[C@H]1COc2c(N3CCC(F)(CN)C3)c(F)cc3cc(C(=O)O)c(=O)n1c23 (stereo partly drawn) [Example 1.16, (3S)-10-(3-(aminomethyl)-3-fluoropyrrolidin-1-yl)-9-fluoro-3-methyl-5-oxo-2,3-dihydro-5H-[1,4]oxazino[2,3,4-ij]quinoline-6-carboxylic acid]",< 1 µg/mL,> 32 µg/mL,1 to 32 µg/mL,< 1 µg/mL,1 to 32 µg/mL,1 to 32 µg/mL,1 to 32 µg/mL,
"C[C@H]1COc2c(N3CC[C@@H](C(C)(C)O)C3)c(F)cc3cc(C(=O)O)c(=O)n1c23 [Example 1.34, (S)-9-fluoro-10-((R)-3-(2-hydroxypropan-2-yl)pyrrolidin-1-yl)-3-methyl-5-oxo-2,3-dihydro-5H-[1,4]oxazino[2,3,4-ij]quinoline-6-carboxylic acid]",1 to 32 µg/mL,> 32 µg/mL,> 32 µg/mL,> 32 µg/mL,> 32 µg/mL,> 32 µg/mL,> 32 µg/mL,
"C[C@H]1COc2c(N3CCC4(CCCN4C)CC3)c(F)cc3cc(C(=O)O)c(=O)n1c23 [Example 1.57, (S)-9-fluoro-3-methyl-10-(1-methyl-1,8-diazaspiro[4.5]decan-8-yl)-5-oxo-2,3-dihydro-5H-[1,4]oxazino[2,3,4-ij]quinoline-6-carboxylic acid]",> 32 µg/mL,> 32 µg/mL,> 32 µg/mL,> 32 µg/mL,> 32 µg/mL,1 to 32 µg/mL,> 32 µg/mL,
